For orientation: IC50 means the concentration needed to halve the response being measured.

This assay concerns the target T1, N-terminal His6-tagged recombinant full-length human Lck (Homo sapiens, UniProt P06239).
T1 construct: N-terminal His6-tagged recombinant full-length human Lck; His6 (N); purchased Millipore
The assay is described as follows: Lck IMAP assay. It is filed as biochemical. The conditions noted are these: ATP 6 μM (KM,ATP), enzyme pre-incubated with compounds for 60 minutes, values given as bins. From the text: Inhibition of kinase activity can be measured using the Immobilized Metal Assay for Phosphochemicals (IMAP) assay. IMAP is a homogeneous fluorescence polarization (FP) assay based on affinity capture of phosphorylated peptide substrates. IMAP uses fluorescein-labeled peptide substrates that, upon phosphorylation by a protein kinase, bind to so-called IMAP nanoparticles, which are derivatized with trivalent metal complexes. Binding causes a change in the rate of the molecular motion of the peptide, and results in an increase in the FP value observed for the fluorescein label attached to the substrate peptide (Gaudet et al. A homogeneous fluorescence polarization assay adaptable for a range of protein serine/threonine and tyrosine kinases. J. Biomol. Screen (2003) 8, 164-175).
Enzyme used was N-terminal His6-tagged recombinant full-length human Lck from Millipore. Phosphorylation substrate was a fluorescein-labeled peptide (5FAM-KVEKIGEGTYGVV—NH2) derived from p34cdc2 from Molecular Devices. Enzymes, substrate and ATP were diluted in Kinase Reaction buffer (10 mM Tris-HCl, 10 mM MgCl2, 0.01% Tween-20, 0.05% NaN3 pH 7.2, 1 mM DTT (dithiotreitol). The final volume at the kinase reaction step of the assay in the 384-well plate was 20 μl. Final amount of enzyme in the reaction was 0.1 U/ml. Enzyme was pre-incubated with compounds diluted in 1% DMSO (dimethylsulfoxide) for 60 minutes at room temperature in the dark. Subsequently, peptide substrate to a final concentration of 100 nM, and ATP to a final concentration of 6 μM were added and the mix was incubated for 120 minutes at room temperature in the dark. IMAP progressive binding buffer (75% 1× buffer A, 25% 1× buffer B with 1:600 Progressive Binding Reagent; Molecular Devices) was added, followed by an incubation step of 60 minutes at room temperature in the dark. Finally, the FP signal was read on an Envision Multilabel reader (Perkin Elmer).
All biochemical assays were run at KM,ATP of the enzyme using non-saturated conditions, meaning that during the incubation time it was assured that the signal increase was linear with time. For all biochemical assays a reference standard was used on each plate.
Ten point serial dilutions using a √10 dilution factor were used for dose response testing of compounds. Starting concentration was 10^-6M for Lck IMAP assays. Dose-response curves were run as two experiments on duplicate plates (N=1; n=2). All data was normalized to percentage effect based on maximum (Max) and minimum (Min) control values. On every 384 assay plate 16 wells were used as minimum wells (wells with ATP, 0% effect) and 16 wells were used as maximum wells (wells without ATP, 100% effect). 16 wells were used for measuring the background signal, obtained from a kinase reaction containing all constituents except the labeled peptide substrate. Percentage effect was plotted against log dilution concentration of compound to obtain sigmoid dose response curves. pIC50 values were calculated using ActivityBase.

T1 sequence (P06239 whole entry): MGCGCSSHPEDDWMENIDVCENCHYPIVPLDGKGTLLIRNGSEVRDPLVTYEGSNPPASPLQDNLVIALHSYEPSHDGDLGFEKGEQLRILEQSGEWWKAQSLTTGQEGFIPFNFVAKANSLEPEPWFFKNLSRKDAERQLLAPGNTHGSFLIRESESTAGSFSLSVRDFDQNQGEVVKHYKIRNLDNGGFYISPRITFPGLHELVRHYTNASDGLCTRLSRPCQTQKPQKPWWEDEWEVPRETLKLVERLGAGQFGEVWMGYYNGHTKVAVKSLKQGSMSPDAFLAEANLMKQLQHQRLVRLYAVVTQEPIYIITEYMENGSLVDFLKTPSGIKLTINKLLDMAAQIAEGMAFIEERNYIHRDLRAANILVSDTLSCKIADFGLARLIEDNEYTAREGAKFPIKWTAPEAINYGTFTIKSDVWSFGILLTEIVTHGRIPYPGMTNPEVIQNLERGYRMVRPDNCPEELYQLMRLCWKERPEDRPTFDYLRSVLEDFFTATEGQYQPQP

In the case of `CCC[C@H](C)OC(=O)Nc1ccc(-c2nc(C3CCC(N4CCN(C)CC4)C3)n3ccnc(C)c23)cc1OC` (mixture of isomers) [Example 28, (S)-Pentan-2-yl 2-methoxy-4-(8-methyl-3-(3-(4-methylpiperazin-1-yl)cyclopentyl)imidazo[1,5-a]pyrazin-1-yl)phenylcarbamate], the IC50 was not above 10 nM.
The result for `COc1cc(-c2nc(C3CCOCC3)n3ccnc(C)c23)ccc1NC(=O)c1cc2ccccc2n1C` [Example 1, N-[2-Methoxy-4-[8-methyl-3-(tetrahydro-2H-pyran-4-yl)imidazo[1,5-a]pyrazine]phenyl]-1-methyl-1H-indole-2-carboxamide] reads not above 10 nM; that for `COc1cc(-c2nc([C@H]3CC[C@H](N4CCN(C(C)=O)CC4)CC3)n3ccnc(C)c23)ccc1NC(=O)c1cc2c(OC)cccc2n1C` [Example 2, N-(4-(3-((Trans)-4-(4-acetylpiperazin-1-yl)cyclohexyl)-8-methylimidazo[1,5-a]pyrazin-1-yl)-2-methoxyphenyl)-4-methoxy-1-methyl-1H-indole-2-carboxamide], not above 10 nM; that for `CCC[C@H](C)OC(=O)Nc1ccc(-c2nc(N3CCC3)n3ccnc(C)c23)cc1OC` [Example 3, (S)-pentan-2-yl 4-(3-(azetidin-1-yl)-8-methylimidazo[1,5-a]pyrazin-1-yl)-2-methoxyphenylcarbamate], 10 to 100 nM.
The result for `CCC[C@H](C)OC(=O)Nc1ccc(-c2nc([C@@H]3CCN(C(=O)CN(C)C)C3)n3ccnc(C)c23)cc1OC` [Example 4, (S)-pentan-2-yl 4-(3-((R)-1-(2-(dimethylamino)acetyl)pyrrolidin-3-yl)-8-methylimidazo[1,5-a]pyrazin-1-yl)-2-methoxyphenylcarbamate] reads not above 10 nM; that for `COc1cc(-c2nc([C@H]3CC[C@H](OC(C)=O)CC3)n3ccnc(C)c23)ccc1NC(=O)c1cc2c(OC)cccc2n1C` [Example 5, (Trans)-4-(1-(3-methoxy-4-(4-methoxy-1-methyl-1H-indole-2-carboxamido)phenyl)-8-methylimidazo[1,5-a]pyrazin-3-yl)cyclohexyl acetate], not above 10 nM; that for `COc1cc(-c2nc([C@H]3CC[C@H](O)CC3)n3ccnc(C)c23)ccc1NC(=O)c1cc2c(OC)cccc2n1C` [Example 6, N-(4-(3-((trans)-4-hydroxycyclohexyl)-8-methylimidazo[1,5-a]pyrazin-1-yl)-2-methoxyphenyl)-4-methoxy-1-methyl-1H-indole-2-carboxamide], not above 10 nM.
As to `COc1cc(-c2nc([C@H]3CC[C@H](N4CCN(C)CC4)CC3)n3ccnc(C)c23)ccc1NC(=O)c1cc2c(OC)cccc2n1C` [Example 7, 4-Methoxy-N-(2-methoxy-4-(8-methyl-3-((trans)-4-(4-methylpiperazin-1-yl)cyclohexyl)imidazo[1,5-a]pyrazin-1-yl)phenyl)-1-methyl-1H-indole-2-carboxamide], the IC50 is not above 10 nM.
In the case of `COc1cc(-c2nc([C@H]3CC[C@@H](N4CCN(C)CC4)CC3)n3ccnc(C)c23)ccc1NC(=O)c1cc2c(OC)cccc2n1C` [Example 8, 4-Methoxy-N-(2-methoxy-4-(8-methyl-3-((cis)-4-(4-methylpiperazin-1-yl)cyclohexyl)imidazo[1,5-a]pyrazin-1-yl)phenyl)-1-methyl-1H-indole-2-carboxamide], the IC50 was not above 10 nM.
The result for `COc1cc(-c2nc([C@H]3CC[C@H](N4CC(F)(F)C4)CC3)n3ccnc(C)c23)ccc1NC(=O)c1cc2c(OC)cccc2n1C` [Example 9, N-(4-(3-((trans)-4-(3,3-difluoroazetidin-1-yl)cyclohexyl)-8-methylimidazo[1,5-a]pyrazin-1-yl)-2-methoxyphenyl)-4-methoxy-1-methyl-1H-indole-2-carboxamide] reads not above 10 nM.
As to `COc1cc(-c2nc([C@H]3CC[C@@H](N4CC(F)(F)C4)CC3)n3ccnc(C)c23)ccc1NC(=O)c1cc2c(OC)cccc2n1C` [Example 10, N-(4-(3-((cis)-4-(3,3-difluoroazetidin-1-yl)cyclohexyl)-8-methylimidazo[1,5-a]pyrazin-1-yl)-2-methoxyphenyl)-4-methoxy-1-methyl-1H-indole-2-carboxamide], the IC50 was not above 10 nM.
For the compound `CCC[C@H](C)OC(=O)Nc1ccc(-c2nc([C@H]3CC[C@H](NCCOC)CC3)n3ccnc(C)c23)cc1OC` [Example 11, (S)-Pentan-2-yl 2-methoxy-4-(3-((trans)-4-(2-methoxyethylamino)cyclohexyl)-8-methyl-imidazo[1,5-a]pyrazin-1-yl)phenylcarbamate], the IC50 is not above 10 nM.
`COc1cc(-c2nc([C@H]3CC[C@H](N4CCOCC4)CC3)n3ccnc(C)c23)ccc1NC(=O)c1cc2ccccc2n1C` [Example 12, N-(2-methoxy-4-(8-methyl-3-((trans)-4-morpholinocyclohexyl)imidazo[1,5-a]pyrazin-1-yl)phenyl)-1-methyl-1H-indole-2-carboxamide]: the IC50 is not above 10 nM.
Take `COc1cc(-c2nc(C3(C)COC3)n3ccnc(C)c23)ccc1NC(=O)c1cc2c(OC)cccc2n1C` [Example 13, 4-Methoxy-N-(2-methoxy-4-(8-methyl-3-(3-methyloxetan-3-yl)imidazo[1,5-a]pyrazin-1-yl)phenyl)-1-methyl-1H-indole-2-carboxamide]: the IC50 was not above 10 nM.
For `COc1cc(-c2nc(CO)n3ccnc(C)c23)ccc1NC(=O)c1cc2c(OC)cccc2n1C` [Example 14, N-(4-(3-(hydroxymethyl)-8-methylimidazo[1,5-a]pyrazin-1-yl)-2-methoxyphenyl)-4-methoxy-1-methyl-1H-indole-2-carboxamide], the IC50 was 10 to 100 nM.
As for `COc1cc(-c2nc(Cn3ccnc3)n3ccnc(C)c23)ccc1NC(=O)c1cc2c(OC)cccc2n1C` [Example 15, N-(4-(3-((1H-imidazol-1-yl)methyl)-8-methylimidazo[1,5-a]pyrazin-1-yl)-2-methoxyphenyl)-4-methoxy-1-methyl-1H-indole-2-carboxamide], the IC50 was 100 to 1000 nM.
For the compound `COc1cc(-c2nc(C3CN(C4CCOCC4)C3)n3ccnc(C)c23)ccc1NC(=O)c1cc2c(OC)cccc2n1C` [Example 16, 4-Methoxy-N-(2-methoxy-4-(8-methyl-3-(1-(tetrahydro-2H-pyran-4-yl)azetidin-3-yl)imidazo[1,5-a]pyrazin-1-yl)phenyl)-1-methyl-1H-indole-2-carboxamide], the IC50 was 10 to 100 nM.
As for `COc1cc(-c2nc(C3CCNCC3)n3ccnc(C)c23)ccc1NC(=O)c1cc2c(OC)cccc2n1C` [Example 17, 4-Methoxy-N-(2-methoxy-4-(8-methyl-3-(piperidin-4-yl)imidazo[1,5-a]pyrazin-1-yl)phenyl)-1-methyl-1H-indole-2-carboxamide], the IC50 was not above 10 nM.
The result for `COc1cc(-c2nc(C3CCN(CC(=O)N(C)C)CC3)n3ccnc(C)c23)ccc1NC(=O)c1cc2ccccc2n1C` [Example 18, N-(4-(3-(1-(2-(dimethylamino)-2-oxoethyl)piperidin-4-yl)-8-methylimidazo[1,5-a]pyrazin-1-yl)-2-methoxyphenyl)-1-methyl-1H-indole-2-carboxamide] reads not above 10 nM; that for `COc1cc(-c2nc(C3CCN(C(=O)CN(C)C)CC3)n3ccnc(C)c23)ccc1NC(=O)c1cc2ccccc2n1C` [Example 19, N-(4-(3-(1-(2-(dimethylamino)acetyl)piperidin-4-yl)-8-methylimidazo[1,5-a]pyrazin-1-yl)-2-methoxyphenyl)-1-methyl-1H-indole-2-carboxamide], not above 10 nM; that for `COc1cc(-c2nc(C3CCN(C(=O)CN)CC3)n3ccnc(C)c23)ccc1NC(=O)c1cc2ccccc2n1C` [Example 20, N-(4-(3-(1-(2-Aminoacetyl)piperidin-4-yl)-8-methylimidazo[1,5-a]pyrazin-1-yl)-2-methoxyphenyl)-1-methyl-1H-indole-2-carboxamide], not above 10 nM.
With `COc1cc(-c2nc(C3CCN(C(N)=O)CC3)n3ccnc(C)c23)ccc1NC(=O)c1cc2c(OC)cccc2n1C` [Example 21, N-(4-(3-(1-carbamoylpiperidin-4-yl)-8-methylimidazo[1,5-a]pyrazin-1-yl)-2-methoxyphenyl)-4-methoxy-1-methyl-1H-indole-2-carboxamide], the IC50 is not above 10 nM.
